Where two headings read alike, the source gives them in different places. Bridge positions count the residues as written; N and C are the ends. Square brackets hold non-standard residues; d marks the D form. Ends that are not written are not given here. Peptide text beside a SMILES is read from it. * marks the point of attachment. FITC = O=C1OC2(c3ccc(O)cc3Oc3cc(O)ccc32)c2ccc(NC(=S)*)cc21; S5 = C=CCCC[C@](C)(N)C(=O)O; Nle = CCCC[C@H](N)C(=O)O; βAla = NCCC(=O)O
Key:
[1] = Circular dichroism (CD) secondary structure of the peptides; format: physicochemical; settings: aqueous solution; 100 μM peptide in 10 mM potassium phosphate, 100 mM potassium fluoride buffer (pH=7.5)
Procedure: Circular dichroism (CD) was used to determine the secondary structure of the peptides. […] Hydrocarbon stapling promoted α-helix contents with SAH-POP1-4 and SAH-POP1-8 having the highest in aqueous solution.
CD spectra were recorded on an AVIV Model 215 Circular Dichroism Spectrometer. Each spectrum was collected with the wavelength between 190 to 260 nm, 0.5 nm increments, and 0.5 s averaging time using a 1-mm path length cell. The peptide concentration was 100 μM in 10 mM potassium phosphate and 100 mM potassium fluoride buffer (pH=7.5). The studied peptides were completely dissolved in this buffer. CD spectra were initially plotted as wavelength versus millidgree, the default output of the instrument. Once the precise peptide concentration was confirmed, the mean residue ellipticity [Θ] was calculated for the y-axis.

[2] = test system: caspase-1 activity in Human THP-1 monocytes; experiment: Promega Caspase-Glo 1 Inflammasome Assay (cell-based bioluminescent caspase-1 activity assay); settings: for inhibited caspase-1 activities: 5 μM inhibitor, PMA-differentiated THP-1, LPS and nigericin stimulated
Source text: Promega Caspase-Glo™ 1 Inflammasome Assay. A cell-based bioluminescent caspase-1 activity assay (O'Brien et al., 2017) (Promega Caspase-Glo™ | Inflammasome Assay Kit G9951) was used to evaluate the inhibitory activity of SAH-POP1-4 and SAH-POP1-8 on inhibition of inflammasome formation and caspase-1 activation. Human THP-1 monocytes were differentiated with phorbol 12-myristate 13-acetate (PMA), and treated sequentially with lipopolysaccharide (LPS), a Toll-like receptor 4 (TLR4) agonist, and nigericin, a K^+ ionophore to promote K^+ efflux, resulting in NLRP3- and ASC-dependent caspase-1 activation. The cells were then treated with the inhibitors. […] Experimental Procedure for Promega caspase-Glo™ 1 Inflammasome Assay: THP1 cells were seeded at 5×10^5/ml in RPMI1640 medium with 10% FCS in 96-well plates and cultivated in the presence of 50 nM phorbol-12-myristate-13-acetate (PMA) for 24 h. Then the media was replaced with fresh media and incubated for 24 h. The cells were stimulated with 200 ng/ml LPS in E. coli (Sigma) for 3 h. The media was removed and replaced with serum-free media (OptiMEM) containing DMSO (1:1,000), 5 μM inhibitors for 30 min. Cells were then stimulated with the inflammasome activators: 5 μM nigericin 2 h. Control samples were incubated with medium lacking LPS or nigericin. Then the activity of the active caspase-1 was measured by Caspase-Glo™ 1 inflammasome assay (Promega). A cell-based bioluminescent caspase-1 activity assay (Promega Caspase-Glo™ 1 Inflammasome Assay Kit G9951) was used to evaluate the inhibitory activity of SAH-POP1-17 and SAH-POP1-18 on inhibition of inflammasome formation and caspase-1 activation. Human THP-1 monocytes were differentiated with phorbol 12-myristate 13-acetate (PMA), and treated sequentially with lipopolysaccharide (LPS), a Toll-like receptor 4 (TLR4) agonist, and nigericin, a K^+ ionophore to promote K^+ efflux, resulting in NLRP3- and ASC-dependent caspase-1 activation. The cells were then treated with the inhibitors. […] Experimental Procedure for Promega caspase-Glo™ 1 Inflammasome Assay: THP1 cells were seeded at 5×10^5/ml in RPMI1640 medium with 10% FCS in 96-well plates and cultivated in the presence of 50 nM phorbol-12-myristate-13-acetate (PMA) for 24 h. Then the media was replaced with fresh media and incubated for 24 h. The cells were stimulated with 200 ng/ml LPS in E. coli (Sigma) for 3 h. The media was removed and replaced with serum-free media (OptiMEM) containing DMSO (1:1,000), 5 μM inhibitors for 30 min. Cells were then stimulated with the inflammasome activators: 5 μM nigericin 2 h. Control samples were incubated with medium lacking LPS or nigericin. Then the activity of the active caspase-1 was measured by Caspase-Glo™ 1 inflammasome assay (Promega).

GST-NLRP3^PYD = biological target: T1, GST-NLRP3^PYD (Homo sapiens, UniProt Q96P20); experiment: KD (μM) | GST-NLRP3^PYD
T1 construct: human NLRP3 (residues 3-110) was cloned into a pET-21b vector; made in house; host or cells: E. coli BL21 DE3
Source text: Table printed on a drawing sheet, FIG. 10
Head of the field: KD (μM) | GST-NLRP3^PYD
The patent's description of the figure: FIG. 10 is a table showing the results from a fluorescence anisotropy binding assay to determine the accurate binding affinities of stapled peptides fPOP1-H2 (SEQ ID NO: 2), fSAH-POP1-1 (SEQ ID NO: 1), fSAH-POP1-3 (SEQ ID NO: 3), fSAH-POP1-4 (SEQ ID NO: 4), fSAH-POP1-5 (SEQ ID NO: 5), fSAH-POP1-6 (SEQ ID NO: 6), fSAH-POP1-7 (SEQ ID NO: 7), fSAH-POP1-8 (SEQ ID NO: 8), fSAH-POP1-9 (SEQ ID NO: 9), fSAH-POP1-10 (SEQ ID NO: 10), fSAH-POP1-11 (SEQ ID NO: 11), fSAH-POP1-12 (SEQ ID NO: 12), fSAH-POP1-13 (SEQ ID NO: 13), fSAH-POP1-14 (SEQ ID NO: 14), fSAH-POP1-15 (SEQ ID NO: 15), fSAH-POP1-16 (SEQ ID NO: 16), fSAH-POP1-17 (SEQ ID NO: 17), fSAH-POP1-18 (SEQ ID NO: 18), fSAH-POP1-19 (SEQ ID NO: 19), fSAH-POP1-20 (SEQ ID NO: 20), fSAH-POP1-21 (SEQ ID NO: 21), fSAH-POP1-22 (SEQ ID NO: 22), fSAH-POP1-23 (SEQ ID NO: 23), fSAH-POP1-24 (SEQ ID NO: 24), fSAH-POP1-25 (SEQ ID NO: 25), fSAH-POP1-26 (SEQ ID NO: 26), fSAH-POP1-27 (SEQ ID NO: 27), fSAH-POP1-28 (SEQ ID NO: 28), fSAH-POP1-29 (SEQ ID NO: 29), fSAH-POP1-30 (SEQ ID NO: 30), fSAH-POP1-31 (SEQ ID NO: 31).
First copying reader's note: In the structures S5, NL (N with lowered L) and NH2 carry lowered signs, a drawn bracket joins the two S5 residues (staple), and the SEQ ID NO column is printed outside the table frame. […]

[3] = test system: ASC speck formation in THP-1 ASC-GFP cells; experiment: ASC speck assay, live-cell imaging; format: cell-based, Human; settings: 20 μM peptide; nigericin-activated THP-1 ASC-GFP cells
Procedure: ASC speck is a hallmark of inflammasome formation (Dick et al., 2016; Hoss et al., 2017) and observable by microscopy (Doyle et al., 2012; Stutz et al., 2013). THP-1 ASC-GFP cells stably expressing the ASC-GFP fusion protein (InvivoGen Catalog #: thp-ascgfp) were used to visualize the inhibitory effect of SAH-POP1-4 on ASC specks formation (Fernandes-Alnemri et al., 2007).
Experimental Procedure for ASC Speck Assay. THP1 ASC-GFP cells were seeded at 2×10^6/ml (0.7-1 mL) in RPMI1640 medium with 10% FCS in FluoroDish (FD35-100) and cultivated in the presence of 50 nM phorbol-12-myristate-13-acetate (PMA) for 24 h, then media was replaced by fresh media and incubated for 24 h. Then cells were stimulated with 200 ng/ml LPS from E. coli (sigma) for 3 h. The media was removed and replaced with serum-free medium (OptiMEM) containing DMSO (1:1,000), 20 μM inhibitors for 30 min. […] Control samples were incubated with media lacking LPS or nigericin. Then, ASC specks were tested by confocal microscopy SP8 (Leica Microsystems).
ASC speck is the hallmark of inflammasome formation and observable by microscopy. THP-1 ASC-GFP cells stably expressing the ASC-GFP fusion protein (InvivoGen Catalog #: thp-ascgfp) were used to visualize the inhibitory effect of SAH-POP1-17 on ASC specks formation (Fernandes-Alnemri et al., 2007). […] SAH-POP1-17 at 5 μM inhibited ASC speck formation to 4%, and SAH-POP1-18 at 5 μM inhibited ASC speck formation to 8%.

T1 sequence (Q96P20 3-110): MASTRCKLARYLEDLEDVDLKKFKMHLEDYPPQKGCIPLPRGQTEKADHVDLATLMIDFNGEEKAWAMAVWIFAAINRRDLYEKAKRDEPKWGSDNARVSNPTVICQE

Molecule	α-helical structure / α-helix contents by circular dichroism [1]	inhibited caspase-1 activities [2] [%]	cell permeability ([2]; THP-1 cells, inferred from caspase-1 assay)	Kd (GST-NLRP3^PYD) [µM]	inhibition of ASC speck formation [3]	cell permeability [2]
CCCC[C@H](NC(=O)[C@H](CCCCN)NC(=O)[C@]1(C)CCCC=CCCC[C@](C)(NC(=O)[C@@H](N)CCC(=O)O)C(=O)N[C@@H](CC(C)C)C(=O)N[C@@H](CCCCN)C(=O)N[C@@H](CCCCN)C(=O)N1)C(=O)N[C@@H](CCCCN)C(=O)N[C@@H](CC(C)C)C(=O)NCC(=O)N[C@H](C(=O)N[C@@H](C)C(N)=O)[C@@H](C)O [SAH-POP1-8] (H-E[S5]LKK[S5]K[Nle]KLGTA-NH2; staple 2-6; N-terminus assumed)	highest	41	cell permeable			
CCCC[C@H](NC(=O)[C@H](CCCCN)NC(=O)[C@H](Cc1ccccc1)NC(=O)[C@H](CCCCN)NC(=O)[C@H](CCCCN)NC(=O)[C@H](CC(C)C)NC(=O)[C@H](CCC(=O)O)NC(=O)[C@H](CCC(=O)O)NC(=O)CCNC(=S)Nc1ccc2c(c1)C(=O)OC21c2ccc(O)cc2Oc2cc(O)ccc21)C(=O)N[C@@H](CCCCN)C(=O)N[C@@H](CC(C)C)C(=O)NCC(=O)N[C@H](C(=O)N[C@H](C(N)=O)C(C)C)[C@@H](C)O [fPOP1-H2] ({FITC-βAla}-EELKKFK[Nle]KLGTV-NH2)				27 ± 2.3		
SAH-POP1-4: hydrocarbon stapled peptide, amino acid sequence ES5LKKS5KMKLGTV (E[S5]LKK[S5]KMKLGTV-NH2; staple 2-6; N-terminus assumed; SMILES CSCC[C@H](NC(=O)[C@H](CCCCN)NC(=O)[C@]1(C)CCCC=CCCC[C@](C)(NC(=O)[C@@H](N)CCC(=O)O)C(=O)N[C@@H](CC(C)C)C(=O)N[C@@H](CCCCN)C(=O)N[C@@H](CCCCN)C(=O)N1)C(=O)N[C@@H](CCCCN)C(=O)N[C@@H](CC(C)C)C(=O)NCC(=O)N[C@H](C(=O)N[C@H](C(N)=O)C(C)C)[C@@H](C)O)	highest	43			completely inhibited	cell permeable

— US12077608B2, “Stapled H2 pyrin peptides” (H. LEE MOFFITT CANCER CENTER AND RESEARCH INSTITUTE, INC., priority 2018, dated 2024)
